From US20250352539A1, “COMBINATION THERAPY FOR TREATING CANCER” (AstraZeneca AB, priority 2022, published 2025)
Where “and” joins values, the source holds several entries; their conditions need not be identical. Equal values may be shown once. Read-outs that look alike come from different tables or passages of the source.

Experiments:
Format in all cases: cell-based
BT474C1 = test: 10-day Cell Titre Glo combination screen; settings: BT474C1 breast; monotherapy; read-out: mono AC50
Procedure, shortened: (§1)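 Readout: CellTiter-Glo luminescence after 10 days of exposure to compound pairs in a 6×6 concentration grid. Growth inhibition is referenced to day-zero and DMSO controls; reported values include HSA synergy scores, CI and single-agent AC50.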

CAL-120 = test: 10-day Cell Titre Glo combination screen; settings: Homo sapiens; CAL-120 breast; monotherapy; read-out: mono AC50
Procedure, shortened: as §1

HCC1143 = test: 10-day Cell Titre Glo combination screen; settings: Homo sapiens; HCC1143 breast; monotherapy; read-out: mono AC50
Procedure, shortened: as §1

HCC1569 = test: 10-day Cell Titre Glo combination screen; settings: Homo sapiens; HCC1569 breast; monotherapy; read-out: mono AC50
Procedure, shortened: as §1

MDA-MB-157 = test: 10-day Cell Titre Glo combination screen; settings: Homo sapiens; MDA-MB-157 breast; monotherapy; read-out: mono AC50
Procedure, shortened: as §1

NCI-H1395 = test: 10-day Cell Titre Glo combination screen; settings: monotherapy, read-out: mono AC50
Procedure, shortened: as §1

NCI-H2085 = test: 10-day Cell Titre Glo combination screen; settings: NCI-H2085 lung; monotherapy; read-out: mono AC50
Procedure, shortened: as §1

NCI-H23 = test: 10-day Cell Titre Glo combination screen; settings: Homo sapiens; NCI-H23 lung; monotherapy; read-out: mono AC50
Procedure, shortened: as §1

SW1573 = test: 10-day Cell Titre Glo combination screen; settings: Homo sapiens; SW1573 lung; monotherapy; read-out: mono AC50
Procedure, shortened: as §1

ZR-75-1 = test: 10-day Cell Titre Glo combination screen; settings: Homo sapiens; ZR-75-1 breast; monotherapy; read-out: mono AC50
Procedure, shortened: as §1

[1] = tested on: SUM149PT 53BP1 KO cell pools; test: Clonogenic proliferation assay (14 days, SRB); settings: Homo sapiens; SUM149PT 53BP1 KO; monotherapy; read-out: IC50, clonogenic growth
Protocol: (§2) Parental BRCA1 mutant SUM149PT breast cancer cell line (Elstrodt 2006) were obtained from AstraZeneca Cell Bank at Alderley Park, Macclesfield. Cells were routinely grown in Ham's F12 media containing 5% foetal calf serum, 1% glutamine (2 mM), 500 ng/ml hydrocortisone and 5% insulin. SUM149PT 53BP1 WT (CNTR) and 53BP1 null (KO) cell pools were generated by CRISPR-Cas9 technology. Short guide (sg) RNA targeting TP53BP1 on exon 10 (GAGTAGATCGGAAAGCATC) and a non-targeting CNTR guide (GAGTAGATCGGAAAGCATC) were designed and cloned into a lentiviral vector containing a mClover3 cassette for green fluorescence signal and hygromycin cassette for selection (pKLV2-U6gRNA (Bbsl)-EF1a-mClover3-T2A-HygR-W). Lentiviruses were generated from both KO and CNTR (sg) RNA and Cas9 (pKLVEF1a-Cas9Bsd-W) plasmids and parental cells were transduced first with Cas9 lentiviruses followed by blasticidin selection and then with KO and CNTR lentiviruses followed by hygromycin selection. Loss of 53BP1 was verified by analysing 53BP1 protein expression from whole cell lysates by western blotting (Novus, NB100-304, 1:1000 dilution).
(§3) Cells were seeded onto 6-well plates, three replicates per cell line, and 24 hours later the cells were dosed with AZD6738/AZD5305. For monotherapies the cells were dosed with a 6-point concentration response of AZD6738 (0 to 0.64 μM) or AZD5305 (0 to 1 μM). For combination treatments single dose of AZD5305 (10 nM) was used with a 5-point concentration response of AZD6738 (0 to 0.64 μM) for 53BP1 KO cells. Cells were grown for 14 days for colony formation without media changes. Cells were fixed with 10% TCA (Tricloroacetic acid). 14 days after dosing any formed colonies were stained with 0.057% SRB (sulforhodamine B acid), imaged with GelCount™ (Oxford OPTRONIX) at 600 dpi resolution and the stained colony growth intensity was measured using plate reader with OD @[…]. Dose response curves were generated and IC50 concentrations were calculated using GraphPad PRISM software.

[2] = tested on: SUM149PT 53BP1 WT (CNTR) cells; test: Clonogenic proliferation assay (14 days, SRB); settings: Homo sapiens; SUM149PT CNTR; monotherapy; read-out: IC50, clonogenic growth
Protocol: as §2, §3

SMILES: C[C@@H]1COCCN1c1cc(C2([S@](C)(=N)=O)CC2)nc(-c2ccnc3[nH]ccc23)n1 [AZD6738, 4-{4-[(3R)-3-Methylmorpholin-4-yl]-6-[1-((R)—S-methylsulfonimidoyl)cyclopropyl]pyrimidin-2-yl}-1H-pyrrolo[2,3-b]-pyridine]
- AC50 (BT474C1): 3830 nM
- AC50 (CAL-120): 1180 nM
- AC50 (HCC1143): 460 nM
- AC50 (HCC1569): 957 nM
- AC50 (MDA-MB-157): 732 nM
- AC50 (NCI-H1395; Homo sapiens, NCI-H1395, NCI-H1395 lung): 3310 nM
- AC50 (NCI-H1395; NCI-H1395 lung): 2900 nM
- AC50 (NCI-H2085): 4750 nM and 5490 nM
- AC50 (NCI-H23): 221 nM
- AC50 (SW1573): 3650 nM
- AC50 (ZR-75-1): 6030 nM
- IC50 [1]: ~630 nM
- IC50 [2]: ~630 nM
